Data published in publication PMC7180767, “Influence of Selected Antidepressants on the Ciliated Protozoan Spirostomum ambiguum: Toxicity, Bioaccumulation, and Biotransformation Products” (Molecules, 2020).
Values after ≈ are worked out from the molar mass of the structure shown. Like-named read-outs stand apart in the source and are kept apart here.

Legend:
M. galloprovincialis = conditions: fluoxetine 75 ng/L nominal, cited from earlier work
Spirostomum ambiguum [1] = tested on: Spirostomum ambiguum
Spirostomum ambiguum [2] = tested on: Spirostomum ambiguum; remark: listed apart in the source
[3] = ref www.drugbank.ca, cited from earlier work; for Log P: octanol-water partition coefficient
Daphnia magna = conditions: endpoint not stated; cited from earlier work
Notonecta glauca = conditions: cited from earlier work
Thamnocephalus platyurus = conditions: cited from earlier work
Planorbid sp. = conditions: in vivo; cited from earlier work
Spirostomum ambiguum [4] = tested on: Spirostomum ambiguum; remark: listed apart in the source
Gammarus pulex = conditions: cited from earlier work
Ceriodaphnia dubia = conditions: cited from earlier work; for toxicity: endpoint not stated
Oncorhynchus mykiss = conditions: cited from earlier work
Leishmania donovani = conditions: cited from earlier work
in vitro = conditions: for LC50 at 1 d / LC50 at 2 d / LC50 at 7 d: Spirostomum ambiguum
[5] = tested on: Hydropsyche sp. and Erpobdella octoculata; conditions: effluent reach stream; cited from earlier work
Spirostomum ambiguum [6] = experiment: microbe, parasite or virus in culture
[7] = Spirostomum ambiguum, 7 d, 10 µg/L, pH 7.4
[8] = Spirostomum ambiguum, 7 d, 25 µg/L, pH 7.4
[9] = Spirostomum ambiguum, 8 d, 10 µg/L, pH 7.4
[10] = Spirostomum ambiguum, 8 d, 25 µg/L, pH 7.4
[11] = Spirostomum ambiguum, 12 d, 10 µg/L, pH 7.4
[12] = Spirostomum ambiguum, 12 d, 25 µg/L, pH 7.4

NCCC(Oc1ccc(C(F)(F)F)cc1)c1ccccc1 (stereo not shown) [norfluoxetine]
concentration in mussel (M. galloprovincialis; after 3 days): 3.06 ng/g dry weight | concentration in mussel (M. galloprovincialis; after 15 days): 11.65 ng/g

CN1CCN2c3ccccc3Cc3ccccc3C2C1 (stereo not shown) [Mianserin, mianserin]
time of highest concentration in S. ambiguum cells (Spirostomum ambiguum [1]): two days | Concentration in S. ambiguum (Spirostomum ambiguum [1]; Spirostomum ambiguum, 1 d, 100 µg/L, pH 7.4): 229.05 µg/g | BCF values reached during the uptake phase (Spirostomum ambiguum [1]; Spirostomum ambiguum, pH 7.4): 4939 L/kg | number of transformation products observed (Spirostomum ambiguum [2]): Five | pKa ([3]; acid dissociation constant): 6.92 | Log P [3]: 3.83

CNCCC(Oc1ccc(C(F)(F)F)cc1)c1ccccc1 (stereo not shown) [Fluoxetine, fluoxetine]
BCF values reached during the uptake phase (Spirostomum ambiguum [1]; S. ambiguum, uptake phase): ≤ 1000 L/kg | toxicity (Daphnia magna): 0.82 mg/L | Log P [3]: 4.09 | concentration in mussel (M. galloprovincialis; after 3 days): 2.53 ng/g dry weight | concentration in mussel (M. galloprovincialis; after 15 days): 9.31 ng/g | BCF (Notonecta glauca): 1387 L/kg | toxicity (Thamnocephalus platyurus; endpoint not stated): 0.85 mg/L | BCF (Planorbid sp.): 3000 L/kg | EC20 (Spirostomum ambiguum [4]; 1 d, pH = 6.0): 2.03 ± 0.82 µg/mL (≈ 6.56 µM) | EC20 (Spirostomum ambiguum [4]; 1 d, pH = 6.5): 1.16 ± 0.14 µg/mL (≈ 3.75 µM) | EC20 (Spirostomum ambiguum [4]; 1 d, pH = 7.4): 1.21 ± 0.04 µg/mL (≈ 3.91 µM) | EC20 (Spirostomum ambiguum [4]; 2 d, pH = 6.0): 1.72 ± 0.51 µg/mL (≈ 5.56 µM) | EC20 (Spirostomum ambiguum [4]; 2 d, pH = 6.5): 0.98 ± 0.16 µg/mL (≈ 3.17 µM) | EC20 (Spirostomum ambiguum [4]; 2 d, pH = 7.4): 1.06 ± 0.11 µg/mL (≈ 3.43 µM) | EC20 (Spirostomum ambiguum [4]; 7 d, pH = 6.0): 0.86 ± 0.15 µg/mL (≈ 2.78 µM) | EC20 (Spirostomum ambiguum [4]; 7 d, pH = 6.5): 0.58 ± 0.07 µg/mL (≈ 1.88 µM) | EC20 (Spirostomum ambiguum [4]; 7 d, pH = 7.4): 0.70 ± 0.13 µg/mL (≈ 2.26 µM) | BCF (Gammarus pulex): 185,900 L/kg | toxicity (Ceriodaphnia dubia): 0.23 mg/L

CN[C@H]1CC[C@@H](c2ccc(Cl)c(Cl)c2)c2ccccc21 [Sertraline, sertraline]
time of highest concentration in cells (Spirostomum ambiguum [1]; Spirostomum ambiguum, 100 µg/L, pH 7.4): 24 h | BCF values reached during the uptake phase (Spirostomum ambiguum [1]; Spirostomum ambiguum, pH 7.4): 34,092 L/kg | fall of intracellular concentration in the depuration phase, of the highest concentration (Spirostomum ambiguum [1]; Spirostomum ambiguum, pH 7.4): 40% | 96-h LC50 (Oncorhynchus mykiss): 0.38 µg/mL | activity against Leishmania donovani (Leishmania donovani): high activity | LC50 at 1 d (in vitro; pH 6): 0.85 ± 0.09 µg/mL (≈ 2.78 µM) | LC50 at 2 d (in vitro; pH 6): 0.49 ± 0.1 µg/mL (≈ 1.6 µM) | LC50 at 7 d (in vitro; pH 6): 0.33 ± 0.08 µg/mL (≈ 1.08 µM) | LC50 at 1 d (in vitro; pH 6.5): 0.47 ± 0.11 µg/mL (≈ 1.53 µM) | LC50 at 2 d (in vitro; pH 6.5): 0.33 ± 0.06 µg/mL (≈ 1.08 µM) | LC50 at 7 d (in vitro; pH 6.5): 0.18 ± 0.04 µg/mL (≈ 0.588 µM) | LC50 at 1 d (in vitro; pH 7.4): 0.41 ± 0.05 µg/mL (≈ 1.34 µM) | LC50 at 2 d (in vitro; pH 7.4): 0.35 ± 0.01 µg/mL (≈ 1.14 µM) | LC50 at 7 d (in vitro; pH 7.4): 0.27 ± 0.03 µg/mL (≈ 0.882 µM) | Log P [3]: 5.06 | 24-h LC50 (Thamnocephalus platyurus): 0.6 µg/mL | BCF (Planorbid sp.): 990 L/kg | bioaccumulation factor (BCF) [5]: higher than 2000 L/kg | EC20 (Spirostomum ambiguum [4]; Spirostomum ambiguum, 1 d, pH 6): 0.46 ± 0.18 µg/mL (≈ 1.5 µM) | EC20 (Spirostomum ambiguum [4]; Spirostomum ambiguum, 1 d, pH 6.5): 0.28 ± 0.04 µg/mL (≈ 0.914 µM) | EC20 (Spirostomum ambiguum [4]; Spirostomum ambiguum, 1 d, pH 7.4): 0.29 ± 0.01 µg/mL (≈ 0.947 µM) | EC20 (Spirostomum ambiguum [4]; Spirostomum ambiguum, 2 d, pH 6): 0.19 ± 0.03 µg/mL (≈ 0.62 µM) | EC20 (Spirostomum ambiguum [4]; Spirostomum ambiguum, 2 d, pH 6.5): 0.22 ± 0.08 µg/mL (≈ 0.718 µM) | EC20 (Spirostomum ambiguum [4]; Spirostomum ambiguum, 2 d, pH 7.4): 0.29 ± 0.01 µg/mL (≈ 0.947 µM) | EC20 (Spirostomum ambiguum [4]; Spirostomum ambiguum, 7 d, pH 6): 0.20 ± 0.05 µg/mL (≈ 0.653 µM) | EC20 (Spirostomum ambiguum [4]; Spirostomum ambiguum, 7 d, pH 6.5): 0.13 ± 0.03 µg/mL (≈ 0.425 µM) | EC20 (Spirostomum ambiguum [4]; Spirostomum ambiguum, 7 d, pH 7.4): 0.15 ± 0.01 µg/mL (≈ 0.49 µM) | 48-h LC50 (Ceriodaphnia dubia): 0.12 µg/mL

Fc1ccc([C@@H]2CCNC[C@H]2COc2ccc3c(c2)OCO3)cc1 [Paroxetine, paroxetine]
Bioconcentration factor in S. ambiguum (Spirostomum ambiguum [1]; [7]): 905 L/kg | Concentration in S. ambiguum (Spirostomum ambiguum [1]; [7]): 0.45 µg/g | Bioconcentration factor in S. ambiguum (Spirostomum ambiguum [1]; [8]): 794 L/kg | Concentration in S. ambiguum (Spirostomum ambiguum [1]; [8]): 1.19 µg/g | Bioconcentration factor in S. ambiguum (Spirostomum ambiguum [1]; [9]): 806 L/kg | Concentration in S. ambiguum (Spirostomum ambiguum [1]; [9]): 0.40 µg/g | Bioconcentration factor in S. ambiguum (Spirostomum ambiguum [1]; [10]): 934 L/kg | Concentration in S. ambiguum (Spirostomum ambiguum [1]; [10]): 1.40 µg/g | Bioconcentration factor in S. ambiguum (Spirostomum ambiguum [1]; [11]): 3649 L/kg | Concentration in S. ambiguum (Spirostomum ambiguum [1]; [11]): 1.82 µg/g | Bioconcentration factor in S. ambiguum (Spirostomum ambiguum [1]; [12]): 1234 L/kg | Concentration in S. ambiguum (Spirostomum ambiguum [1]; [12]): 1.85 µg/g | BCF values reached during the uptake phase (Spirostomum ambiguum [1]; Spirostomum ambiguum, pH 7.4): ≤ 1000 L/kg | LC50 at 1 d (in vitro; pH 6): 4.53 ± 0.55 µg/mL (≈ 13.8 µM) | LC50 at 2 d (in vitro; pH 6): 2.55 ± 0.75 µg/mL (≈ 7.74 µM) | LC50 at 7 d (in vitro; pH 6): 1.44 ± 0.21 µg/mL (≈ 4.37 µM) | LC50 at 1 d (in vitro; pH 6.5): 1.4 ± 0.06 µg/mL (≈ 4.25 µM) | LC50 at 7 d (in vitro; pH 6.5): 0.81 ± 0.31 µg/mL (≈ 2.46 µM) | LC50 at 1 d (in vitro; pH 7.4): 1.17 ± 0.29 µg/mL (≈ 3.55 µM) | LC50 at 2 d (in vitro; pH 7.4): 1.15 ± 0.3 µg/mL (≈ 3.49 µM) | LC50 at 7 d (in vitro; pH 7.4): 0.77 ± 0.1 µg/mL (≈ 2.34 µM) | LC50 (in vitro; pH 6.5): 1.27 ± 0.16 µg/mL (≈ 3.86 µM) | toxicity (Daphnia magna): 6.3 mg/L | EC50 (Spirostomum ambiguum [6]; 24 h, 1 d, pH = 6.0): 3.15 ± 1.68 µg/mL (≈ 9.56 µM) | EC50 (Spirostomum ambiguum [6]; 24 h, 1 d, pH = 6.5): 1.37 ± 0.03 µg/mL (≈ 4.16 µM) | EC50 (Spirostomum ambiguum [6]; 24 h, 1 d, pH = 7.4): 1.15 ± 0.29 µg/mL (≈ 3.49 µM) | EC50 (Spirostomum ambiguum [6]; 48 h, 2 d, pH = 6.0): 2.07 ± 0.73 µg/mL (≈ 6.28 µM) | EC50 (Spirostomum ambiguum [6]; 48 h, 2 d, pH = 6.5): 1.24 ± 0.17 µg/mL (≈ 3.76 µM) | EC50 (Spirostomum ambiguum [6]; 48 h, 2 d, pH = 7.4): 1.1 ± 0.29 µg/mL (≈ 3.34 µM) | EC50 (Spirostomum ambiguum [6]; […], 7 d, pH = 6.0): 1.32 ± 0.13 µg/mL (≈ 4.01 µM) | EC50 (Spirostomum ambiguum [6]; […], 7 d, pH = 6.5): 0.76 ± 0.26 µg/mL (≈ 2.31 µM) | EC50 (Spirostomum ambiguum [6]; […], 7 d, pH = 7.4): 0.74 ± 0.06 µg/mL (≈ 2.25 µM) | toxicity (Ceriodaphnia dubia): 0.58 mg/L
